The source of these data is ChEMBL document CHEMBL3132769, “Fragment growing to retain or alter the selectivity of anchored kinase hinge-binding fragments” (Medchemcomm, 2014).

Test [1] addresses Protein kinase C beta type (Homo sapiens) (UniProt P05771). As to the kind of experiment: Inhibition of human full length PKC beta2 expressed in baculovirus assessed as substrate phosphorylation using fluorescence-labelled peptides as substrate at 0.2 uM after 90 mins by microfluidic peptide phosphorylation assay.
For test [2], the target named is Insulin-like growth factor 1 receptor (Homo sapiens) (UniProt P08069). The experiment in a line: Inhibition of human IGF1R catalytic domain expressed in baculovirus assessed as substrate phosphorylation using fluorescence-labelled peptides as substrate at 0.2 uM after 90 mins by microfluidic peptide phosphorylation assay.
The target of test [3] is T1, Serine/threonine-protein kinase Nek2 (Homo sapiens) (UniProt P51955).
T1 sequence (whole entry): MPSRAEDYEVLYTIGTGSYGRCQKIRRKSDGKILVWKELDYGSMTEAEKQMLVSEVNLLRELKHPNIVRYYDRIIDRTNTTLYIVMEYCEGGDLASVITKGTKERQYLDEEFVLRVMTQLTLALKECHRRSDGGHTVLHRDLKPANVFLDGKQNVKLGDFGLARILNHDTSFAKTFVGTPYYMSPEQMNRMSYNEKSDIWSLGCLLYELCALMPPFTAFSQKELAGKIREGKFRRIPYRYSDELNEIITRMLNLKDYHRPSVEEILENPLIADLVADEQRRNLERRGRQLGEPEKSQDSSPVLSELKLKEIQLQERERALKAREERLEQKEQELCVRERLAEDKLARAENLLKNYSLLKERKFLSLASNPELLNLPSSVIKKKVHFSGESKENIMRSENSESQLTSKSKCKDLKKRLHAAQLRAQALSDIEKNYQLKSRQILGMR
As to the kind of experiment: Inhibition of human full length NEK2 expressed in baculovirus assessed as substrate phosphorylation using fluorescence-labelled peptides as substrate at 9 uM after 90 mins by microfluidic peptide phosphorylation assay.

The target of test [4] is Cyclin-dependent kinase 2 (Homo sapiens) (UniProt P24941). As to the kind of experiment: Inhibition of human full length CDK2 expressed in baculovirus assessed as substrate phosphorylation using fluorescence-labelled peptides as substrate at 9 uM after 90 mins by microfluidic peptide phosphorylation assay.
The target in test [5] is T2, Serine/threonine-protein kinase Sgk1 (Homo sapiens) (UniProt O00141).
T2 sequence (whole entry): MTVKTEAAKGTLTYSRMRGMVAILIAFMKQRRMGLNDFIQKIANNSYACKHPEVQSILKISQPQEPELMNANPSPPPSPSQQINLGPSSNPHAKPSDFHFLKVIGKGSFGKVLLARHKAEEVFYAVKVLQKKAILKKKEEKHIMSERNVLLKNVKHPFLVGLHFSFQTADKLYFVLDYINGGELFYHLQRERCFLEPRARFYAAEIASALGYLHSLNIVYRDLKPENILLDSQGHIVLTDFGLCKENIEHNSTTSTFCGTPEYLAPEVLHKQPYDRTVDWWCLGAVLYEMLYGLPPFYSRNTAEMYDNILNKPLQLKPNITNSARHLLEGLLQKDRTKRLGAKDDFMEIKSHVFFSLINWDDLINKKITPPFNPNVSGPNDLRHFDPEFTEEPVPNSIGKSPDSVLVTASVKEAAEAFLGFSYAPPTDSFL
The experiment in a line: Inhibition of human truncated SGK1 expressed in baculovirus assessed as substrate phosphorylation using fluorescence-labelled peptides as substrate at 9 uM after 90 mins by microfluidic peptide phosphorylation assay.

The target in test [6] is MAP/microtubule affinity-regulating kinase 3 (Homo sapiens) (UniProt P27448). As to the kind of experiment: Inhibition of human full length c-TAK1 expressed in Escherichia coli cell assessed as substrate phosphorylation using fluorescence-labelled peptides as substrate at 95 uM after 90 mins by microfluidic peptide phosphorylation assay.
MAP/microtubule affinity-regulating kinase 3 (Homo sapiens), sequence (P27448 whole entry, looked up): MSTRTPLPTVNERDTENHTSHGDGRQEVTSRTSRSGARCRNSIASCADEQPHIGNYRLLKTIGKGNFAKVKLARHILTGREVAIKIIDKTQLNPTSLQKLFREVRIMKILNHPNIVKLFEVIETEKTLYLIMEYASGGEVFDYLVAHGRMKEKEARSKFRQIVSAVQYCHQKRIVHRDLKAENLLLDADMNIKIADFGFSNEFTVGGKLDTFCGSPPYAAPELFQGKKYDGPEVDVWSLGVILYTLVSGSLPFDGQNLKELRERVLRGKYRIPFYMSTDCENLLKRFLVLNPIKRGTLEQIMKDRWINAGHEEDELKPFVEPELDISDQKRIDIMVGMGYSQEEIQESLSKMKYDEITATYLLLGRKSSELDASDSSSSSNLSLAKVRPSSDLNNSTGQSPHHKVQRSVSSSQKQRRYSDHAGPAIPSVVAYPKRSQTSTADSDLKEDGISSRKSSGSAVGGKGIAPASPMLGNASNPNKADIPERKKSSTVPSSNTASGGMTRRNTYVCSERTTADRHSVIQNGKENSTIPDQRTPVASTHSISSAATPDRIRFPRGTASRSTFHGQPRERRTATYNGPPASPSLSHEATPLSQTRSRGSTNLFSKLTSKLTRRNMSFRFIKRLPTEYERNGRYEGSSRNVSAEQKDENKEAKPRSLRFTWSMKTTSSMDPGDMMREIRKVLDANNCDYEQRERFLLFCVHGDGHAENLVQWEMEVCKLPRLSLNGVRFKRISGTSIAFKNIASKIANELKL
Test [7] has as its target T3, Serine/threonine-protein kinase 3 (Homo sapiens) (UniProt Q13188).
T3 sequence (whole entry): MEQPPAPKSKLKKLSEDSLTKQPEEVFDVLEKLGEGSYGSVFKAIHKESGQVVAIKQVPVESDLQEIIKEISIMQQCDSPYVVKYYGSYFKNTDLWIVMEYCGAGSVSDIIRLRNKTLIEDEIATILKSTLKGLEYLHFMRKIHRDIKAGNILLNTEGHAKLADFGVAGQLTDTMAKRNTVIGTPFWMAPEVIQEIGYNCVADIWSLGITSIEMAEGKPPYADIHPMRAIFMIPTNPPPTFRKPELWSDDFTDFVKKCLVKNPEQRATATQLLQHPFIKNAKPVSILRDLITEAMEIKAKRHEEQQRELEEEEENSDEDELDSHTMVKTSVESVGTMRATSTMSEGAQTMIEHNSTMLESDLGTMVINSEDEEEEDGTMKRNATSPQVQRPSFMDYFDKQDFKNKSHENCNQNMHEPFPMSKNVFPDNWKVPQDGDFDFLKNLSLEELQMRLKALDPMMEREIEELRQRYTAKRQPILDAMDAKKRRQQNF
As to the kind of experiment: Inhibition of human full length MST2 expressed in baculovirus assessed as substrate phosphorylation using fluorescence-labelled peptides as substrate at 70 uM after 90 mins by microfluidic peptide phosphorylation assay.

For test [8], the target named is MAP kinase p38 (Homo sapiens) (UniProt O15264+Q15759+Q16539+P53778). The experiment in a line: Inhibition of human full length p38 beta2 expressed in Escherichia coli cell assessed as substrate phosphorylation using fluorescence-labelled peptides as substrate at 420 uM after 90 mins by microfluidic peptide phosphorylation assay.
For test [9], the target named is Calcium/calmodulin-dependent protein kinase type II subunit beta (Homo sapiens) (UniProt Q13554). The experiment in a line: Inhibition of human CAMK2 beta catalytic domain expressed in baculovirus assessed as substrate phosphorylation using fluorescence-labelled peptides as substrate at 420 uM after 90 mins by microfluidic peptide phosphorylation assay.
Calcium/calmodulin-dependent protein kinase type II subunit beta (Homo sapiens), sequence (Q13554 whole entry, the tested form may be a part): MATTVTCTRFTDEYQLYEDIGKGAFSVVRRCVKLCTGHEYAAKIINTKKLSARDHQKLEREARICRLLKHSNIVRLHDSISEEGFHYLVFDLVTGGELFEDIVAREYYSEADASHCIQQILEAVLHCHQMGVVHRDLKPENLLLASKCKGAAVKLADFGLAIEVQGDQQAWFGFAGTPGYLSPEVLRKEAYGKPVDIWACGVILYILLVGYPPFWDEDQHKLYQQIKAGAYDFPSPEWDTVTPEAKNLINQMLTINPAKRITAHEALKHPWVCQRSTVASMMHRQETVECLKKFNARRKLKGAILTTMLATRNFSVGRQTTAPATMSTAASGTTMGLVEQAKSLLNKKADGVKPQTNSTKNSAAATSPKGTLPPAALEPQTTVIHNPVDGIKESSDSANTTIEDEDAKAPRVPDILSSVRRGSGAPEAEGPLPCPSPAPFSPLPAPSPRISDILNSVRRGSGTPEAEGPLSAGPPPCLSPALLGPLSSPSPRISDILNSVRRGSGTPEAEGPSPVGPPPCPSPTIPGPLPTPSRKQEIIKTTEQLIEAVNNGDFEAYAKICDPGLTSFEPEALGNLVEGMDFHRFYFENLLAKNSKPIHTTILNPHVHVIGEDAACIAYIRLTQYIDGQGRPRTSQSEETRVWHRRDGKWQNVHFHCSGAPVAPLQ

Protein kinase C beta type (Homo sapiens), sequence (P05771 2-671 limits assumed): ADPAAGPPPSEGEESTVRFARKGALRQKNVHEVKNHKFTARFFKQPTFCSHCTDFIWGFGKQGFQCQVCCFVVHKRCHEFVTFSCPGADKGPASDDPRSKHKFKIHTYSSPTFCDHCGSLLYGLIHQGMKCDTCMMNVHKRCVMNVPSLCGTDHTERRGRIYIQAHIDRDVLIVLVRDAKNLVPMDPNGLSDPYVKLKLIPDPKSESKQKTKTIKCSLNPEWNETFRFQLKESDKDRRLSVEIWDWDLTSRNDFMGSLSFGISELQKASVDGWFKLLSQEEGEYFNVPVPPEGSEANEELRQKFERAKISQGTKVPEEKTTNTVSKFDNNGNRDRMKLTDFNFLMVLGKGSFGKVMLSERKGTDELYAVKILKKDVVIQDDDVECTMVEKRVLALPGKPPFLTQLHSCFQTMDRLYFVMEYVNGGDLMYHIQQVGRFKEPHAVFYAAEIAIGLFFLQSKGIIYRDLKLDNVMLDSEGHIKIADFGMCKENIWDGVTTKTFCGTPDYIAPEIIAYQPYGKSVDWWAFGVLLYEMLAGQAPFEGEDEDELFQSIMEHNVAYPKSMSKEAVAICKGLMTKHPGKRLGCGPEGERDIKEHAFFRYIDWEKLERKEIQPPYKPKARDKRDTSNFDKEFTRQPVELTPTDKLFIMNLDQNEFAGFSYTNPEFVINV

As to `Clc1ccc(C2(c3ccc(-c4ncnc5[nH]cnc45)cc3)CCNCC2)cc1`, the values for the inhibition in test [1] and in [2] were 38.5% and 5%, respectively.
For `NCC1CN(c2ncnc3[nH]c4cnccc4c23)CCO1` (centres undefined), the inhibition (as a rule, the relative decrease from the control value, in per cent) in test [3] is 6%; in test [4], 26.5%; in test [5], 51%.
Take `NCCc1ccc(-c2ncnc3[nH]cnc23)cc1`: the inhibition in [6] is 18%.
On to `CNCc1ccc(-c2ncnc3[nH]cnc23)cc1`, for which the inhibition in [7] came to 88%.
Consider `c1nc(N2CCOCC2)c2nc[nH]c2n1`, for which the results for the inhibition in test [8] and in test [9] were 1.5% and 20.5%, respectively.
